Experimental data from patent US10028992B2, “Methods of treating muscular dystrophy” (BOARD OF REGENTS OF THE NEVADA SYSTEM OF HIGHER EDUCATION …, priority 2012, dated 2018).
Where two headings read alike, the source gives them in different places.

Tested on: α7 integrin promoter
Assay: muscle cell-based assay: α7βgal+/− myoblasts/myotubes, LacZ reporter, β-galactosidase cleavage of FDG
Parameters: species or system mouse
Protocol: An α7 integrin null mouse was produced in which exon 1 of the gene encoding the α7 integrin was replaced by the LacZ reporter. In these mice, all the transcriptional regulatory elements of the α7 integrin promoter were retained, allowing β-galactosidase to report expression of 7 integrin. A primary myoblast cell line (designated α7βgal^+/−) isolated from 10 day old α7^+/− pups were analyzed for the ability of β-galactosidase to report α7 integrin expression. α7βgal^+/− myoblasts were differentiated and subjected to X-gal staining and western analysis (FIGS. 1A and 1B).
The activity of the α7 integrin promoter was measured by β-galactosidase cleavage of the non-fluorescent compound fluorescein di-β-D-galactopyranoside (FDG) to fluorescein. This assay was used to screen compound libraries to identify molecules that up-regulate α7 integrin expression in muscle.
Also evaluated was the effect of various isoforms of laminin and the ligand for α7β1 integrin on integrin expression. Positive hits were subjected to dose-response analysis, western analysis and a myostatin counterscreen (a negative regulator of muscle growth).

[1] = Mus musculus; Table 12; log of AC50, given with negative sign; unit of AC50 not given; read-out: Fit Log AC50 (converted)
[2] = Mus musculus; read-out: Max Response [%]
[3] = Table 12; fitted activity at zero concentration
[4] = Table 12 Compound data; concentration-response curve fit

Cc1ccc(C2Nc3cccc4cccc(c34)N2)s1 [Compound 24]
AC50 [1]: 3.16 µM | Emax [2]: 81.3% | Fit HillSlope (Table 12; curve fit): 2.1211 | Fit Zero Activity [%] [3]: 5.7274% | Fit Curve Class (Table 12; key not given): 1.1 | Score [4]: 84

COc1cc(=O)n(C)c2ccccc12 [Compound 25]
AC50 [1]: 2.24 µM | Emax [2]: 63% | Fit HillSlope (Table 12; curve fit): 1.6604 | Fit Zero Activity [%] [3]: −18.7854% | Fit Curve Class (Table 12; key not given): 1.1 | Score [4]: 84

CCOC(=O)c1sc(=N)n(-c2ccc(OC)cc2)c1C [Compound 26]
AC50 [1]: 2 µM | Emax [2]: 56.1% | Fit HillSlope (Table 12; curve fit): 1.1 | Fit Zero Activity [%] [3]: −36.1807% | Fit Curve Class (Table 12; key not given): 1.1 | Score [4]: 84

Cc1ccc(OCC(=O)N2CCN(S(=O)(=O)c3ccc4c(c3)OCCO4)CC2)c(C)c1 [Compound 27]
AC50 [1]: 2 µM | Emax [2]: 53.8% | Fit HillSlope (Table 12; curve fit): 2.2526 | Fit Zero Activity [%] [3]: −26.8995% | Fit Curve Class (Table 12; key not given): 1.1 | Score [4]: 83

CC(NC(=O)c1cn(C)c2ccc(S(=O)(=O)N3CCCC3)cc2c1=O)c1ccccc1 (stereo not shown) [Compound 28]
AC50 [1]: 2.82 µM | Emax [2]: 54.7% | Fit HillSlope (Table 12; curve fit): 2.5334 | Fit Zero Activity [%] [3]: −36.6914% | Fit Curve Class (Table 12; key not given): 1.1 | Score [4]: 83

Cc1cc(NC(=O)CCC(=O)N(Cc2cccnc2)C(C(=O)NC(C)(C)C)c2ccccc2Cl)no1 (stereo not shown) [Compound 29]
AC50 [1]: 3.98 µM | Emax [2]: 54.9% | Fit HillSlope (Table 12; curve fit): 1.7885 | Fit Zero Activity [%] [3]: −25.4387% | Fit Curve Class (Table 12; key not given): 1.1 | Score [4]: 83

COc1cc(/C=C2/C(=N)N3C(SC)=NSC3=NC2=O)ccc1OC(=O)c1ccco1 [Compound 30]
AC50 [1]: 3.98 µM | Emax [2]: 73.4% | Fit HillSlope (Table 12; curve fit): 2.1876 | Fit Zero Activity [%] [3]: −19.157% | Fit Curve Class (Table 12; key not given): 1.1 | Score [4]: 83

COc1ccccc1CNc1cc(C)ccn1 [Compound 31]
AC50 [1]: 2.51 µM | Emax [2]: 62.3% | Fit HillSlope (Table 12; curve fit): 1.9673 | Fit Zero Activity [%] [3]: −24.2621% | Fit Curve Class (Table 12; key not given): 1.1 | Score [4]: 83

Cc1nn(C(C)(C)C)c(C)c1/C=N/OC(=O)Nc1ccc(Cl)c(Cl)c1 [Compound 32]
Curve Description: Complete | Fit Curve Class: 1.1 | Fit HillSlope: 2.1211 | Fit Zero Activity [%]: −28.5623% | Score: 83 | AC50 (Mus musculus, read-out: Fit Log AC50 (converted)): 2.82 µM | Emax (Mus musculus, read-out: Max Response [%]): 59.8%

CCOC(=O)C1CCCN(C(=O)CNS(=O)(=O)c2ccc(Br)s2)C1 (stereo not shown) [Compound 33]
AC50 [1]: 2 µM | Emax [2]: 31.1% | Fit HillSlope (Table 12; curve fit): 1.1 | Fit Zero Activity [%] [3]: −50.1655% | Fit Curve Class (Table 12; key not given): 1.1 | Score [4]: 82

CCCCNC(=O)CSc1nnc(Cc2ccc(Cl)c(Cl)c2)c(O)n1 [Compound 34]
AC50 [1]: 1.41 µM | Emax [2]: 75.4% | Fit HillSlope (Table 12; curve fit): 1.8851 | Fit Zero Activity [%] [3]: 5.9015% | Fit Curve Class (Table 12; key not given): 1.2 | Score [4]: 65

O=Cc1ccc(C(=O)OCC(=O)N2CCCC2)cc1 [Compound 35]
Activity at 0.307 μM [%] ** (0.307 μM): 0% | AC50 [1]: 2.51 µM | Emax [2]: 71.8% | Fit HillSlope (Table 12; curve fit): 3.132 | Fit Zero Activity [%] [3]: −0.1751% | Fit Curve Class (Table 12; key not given): 1.2 | Score [4]: 64

CC(C)/N=C(\S)NN=C1CCCCCCCCCCC1 [Compound 36]
AC50 [1]: 3.16 µM | Emax [2]: 78.6% | Fit HillSlope (Table 12; curve fit): 1.4163 | Fit Zero Activity [%] [3]: 5.5% | Fit Curve Class (Table 12; key not given): 1.2 | Score [4]: 64

COc1ccc(S(=O)(=O)N(NC2=NS(=O)(=O)c3ccccc32)C(=O)C(C)C)cc1 [Compound 37]
AC50 [1]: 2.51 µM | Emax [2]: 72.9% | Fit HillSlope (Table 12; curve fit): 2.4064 | Fit Zero Activity [%] [3]: −2.5935% | Fit Curve Class (Table 12; key not given): 1.2 | Score [4]: 64

C/C(CC(=O)Nc1ccc(Cl)c(C(F)(F)F)c1)=N\NC(=O)c1cnccn1 [Compound 38]
AC50 [1]: 4.47 µM | Emax [2]: 72.7% | Fit HillSlope (Table 12; curve fit): 4.9549 | Fit Zero Activity [%] [3]: −2.0156% | Fit Curve Class (Table 12; key not given): 1.2 | Score [4]: 63

Cc1ccc(-c2onc3ccc(C(=O)/C=C/N(C)C)cc23)cc1 [Compound 39]
AC50 [1]: 3.55 µM | Emax [2]: 69.1% | Fit HillSlope (Table 12; curve fit): 1.7529 | Fit Zero Activity [%] [3]: −9.0026% | Fit Curve Class (Table 12; key not given): 1.2 | Score [4]: 63

Cc1cccn2c(=O)c3cc(C(=O)NC4CCCCC4)n(C)c3nc12 [Compound 40]
AC50 [1]: 14.1 µM | Emax [2]: 427% | Fit HillSlope (Table 12; curve fit): 4.5045 | Fit Zero Activity [%] [3]: −3.212% | Fit Curve Class (Table 12; key not given): 2.1 | Score [4]: 48

COc1ccc(Cl)cc1NC(=O)CC(=O)Nc1cc(Cl)ccc1OC [Compound 41]
AC50 [1]: 14.1 µM | Emax [2]: 453% | Fit HillSlope (Table 12; curve fit): 4.5045 | Fit Zero Activity [%] [3]: 8.8874% | Fit Curve Class (Table 12; key not given): 2.1 | Score [4]: 48

COc1cc(/C=C/CN2CCN(Cc3ccc(C)o3)C(CCO)C2)ccc1O (stereo not shown) [Compound 42]
Activity at 1.530 μM [%] ** (1.530 μM): 0% | AC50 [1]: 14.1 µM | Emax [2]: 481% | Fit HillSlope (Table 12; curve fit): 4.9549 | Fit Zero Activity [%] [3]: 9.6207% | Fit Curve Class (Table 12; key not given): 2.1 | Score [4]: 48

O=C(Cn1cccc1C(=O)c1ccccc1)NCCCc1ccccc1 [Compound 43]
AC50 [1]: 3.98 µM | Emax [2]: 131% | Fit HillSlope (Table 12; curve fit): 0.9 | Fit Zero Activity [%] [3]: 0% | Fit Curve Class (Table 12; key not given): 2.1 | Score [4]: 47

CC(=O)Nc1ccc(N(C(=O)c2cnccn2)C(C(=O)NC2CCCCC2)c2ccc(F)cc2)cc1 (stereo not shown) [Compound 44]
AC50 [1]: 11.2 µM | Emax [2]: 308% | Fit HillSlope (Table 12; curve fit): 4.095 | Fit Zero Activity [%] [3]: −17.6073% | Fit Curve Class (Table 12; key not given): 2.1 | Score [4]: 47

COc1ccc(N2CCCC2)c(NC(=O)c2ccc([N+](=O)[O-])o2)c1 [Compound 46]
AC50 [1]: 7.94 µM | Emax [2]: 156% | Fit HillSlope (Table 12; curve fit): 1.01 | Fit Zero Activity [%] [3]: −35.6022% | Fit Curve Class (Table 12; key not given): 2.1 | Score [4]: 46

CC(=O)Nc1ccc(NC(=O)[C@@H](NC(=O)c2cccc(C)c2)C(C)C)cc1 [Compound 47]
AC50 [1]: 5.62 µM | Emax [2]: 142% | Fit HillSlope (Table 12; curve fit): 1.331 | Fit Zero Activity [%] [3]: 12.5272% | Fit Curve Class (Table 12; key not given): 2.1 | Score [4]: 46

O=C(O)c1cc(/N=C/c2c(O)oc3ccccc3c2=O)ccc1O [Compound 48]
AC50 [1]: 7.08 µM | Emax [2]: 165% | Fit HillSlope (Table 12; curve fit): 1.7137 | Fit Zero Activity [%] [3]: −35.4511% | Fit Curve Class (Table 12; key not given): 2.1 | Score [4]: 46

O=[N+]([O-])c1ccc(N2CCN(c3ccccc3F)CC2)nc1 [Compound 49]
AC50 [1]: 5.62 µM | Emax [2]: 151% | Fit HillSlope (Table 12; curve fit): 1.9282 | Fit Zero Activity [%] [3]: 2.973% | Fit Curve Class (Table 12; key not given): 2.1 | Score [4]: 46

O=C1SC(Cc2ccccc2)C(=O)N1c1ccccc1 (stereo not shown) [Compound 50]
AC50 [1]: 7.94 µM | Emax [2]: 176% | Fit HillSlope (Table 12; curve fit): 1.8851 | Fit Zero Activity [%] [3]: 5.0579% | Fit Curve Class (Table 12; key not given): 2.1 | Score [4]: 46

Cc1ccc(NCc2nnc(SCC(=O)Nc3nnc(C)s3)n2C)cc1 [Compound 51]
AC50 [1]: 10 µM | Emax [2]: 249% | Fit HillSlope (Table 12; curve fit): 4.9549 | Fit Zero Activity [%] [3]: −23.8252% | Fit Curve Class (Table 12; key not given): 2.1 | Score [4]: 46

CC1CCCCN1c1ncnc(N)c1[N+](=O)[O-] (stereo not shown) [Compound 52]
AC50 [1]: 4.47 µM | Emax [2]: 130% | Fit HillSlope (Table 12; curve fit): 1.4781 | Fit Zero Activity [%] [3]: −27.7073% | Fit Curve Class (Table 12; key not given): 2.1 | Score [4]: 46

O=C(Nc1ccc(Cl)cc1N1CCOCC1)C1CCCCC1 [Compound 53]
Activity at 0.307 μM [%] ** (0.307 μM): 0% | AC50 [1]: 7.08 µM | Emax [2]: 119% | Fit HillSlope (Table 12; curve fit): 0.8 | Fit Zero Activity [%] [3]: −11.267% | Fit Curve Class (Table 12; key not given): 2.1 | Score [4]: 45

CCCn1c(-c2cc(OC)c(OC)c(OC)c2)nc2c1c(=O)[nH]c(=O)n2Cc1ccccc1 [Compound 54]
AC50 [1]: 12.6 µM | Fit HillSlope (Table 12; curve fit): 1.1341 | Fit Zero Activity [%] [3]: 39.3368% | Fit Curve Class (Table 12; key not given): 2.1 | Score [4]: 45

CS(=O)(=O)c1ccc(Cl)c(NC(=O)CSc2nncn2-c2ccccc2)c1 [Compound 55]
AC50 [1]: 12.6 µM | Fit HillSlope (Table 12; curve fit): 4.9549 | Fit Zero Activity [%] [3]: −18.4203% | Fit Curve Class (Table 12; key not given): 2.1 | Score [4]: 45

CC(C)(CC(=O)O)CC(=O)N1CCCN(c2nccc(C(F)(F)F)n2)CC1 [Compound 56]
AC50 [1]: 3.98 µM | Fit HillSlope (Table 12; curve fit): 1.5095 | Fit Zero Activity [%] [3]: 21.8862% | Fit Curve Class (Table 12; key not given): 2.1 | Score [4]: 45

COc1cc(CNCc2ccc(C(=O)O)cc2)ccc1OCc1ccc(F)cc1.Cl [Compound 57]
AC50 [1]: 4.47 µM | Fit HillSlope (Table 12; curve fit): 1.7529 | Fit Zero Activity [%] [3]: −0.5596% | Fit Curve Class (Table 12; key not given): 2.1 | Score [4]: 45

COc1ccc(Nc2ncnc3ccc(C)cc23)cc1 [Compound 58]
AC50 [1]: 3.55 µM | Fit HillSlope (Table 12; curve fit): 0.9 | Fit Zero Activity [%] [3]: −42.3624% | Fit Curve Class (Table 12; key not given): 2.1 | Score [4]: 45

COc1ccc(-n2c(C)c(C(C)=O)c3cc(OC(C)=O)ccc32)cc1 [Compound 59]
AC50 [1]: 10 µM | Fit HillSlope (Table 12; curve fit): 3.5722 | Fit Zero Activity [%] [3]: −3.6299% | Fit Curve Class (Table 12; key not given): 2.1 | Score [4]: 45
